# Measured values published in patent US20190015385A1, “VITAMIN E PHOSPHATE OR ACETATE FOR USE IN THE TREATMENT AND PREVENTION OF BIOFILM INFECTIONS” (priority 2016, published 2019).
# What was measured:
# Pseudomonas aeruginosa = assay: Biofilm on coated titanium disks, CFU count (Example 2); type: cell-based; conditions: P. aeruginosa, vitamin E acetate 5 mg/cm^2, methylene blue 20 μg/cm^2
# Excerpt: (§1) This study used clinically relevant strains isolated from patients with prosthetic joint infections at the Microbiology Laboratory of the IRCCS Galeazzi Orthopaedic Institute (Italy). In particular, the following were selected: a strain of methicillin-resistant Staphylococcus epidermidis, a strain of methicillin-resistant Staphylococcus aureus and a strain of Pseudomonas aeruginosa. These strains were identified beforehand by means of biochemical assays (VITEK® 2 Compact, bioMérieux, Marcy l'Etoile, France) and stored at −80° C. prior to the analysis. Before beginning the study, all strains underwent testing to assess their ability to produce biofilms according to the spectrophotometric assay described by Christensen et al. (J Clin Microbiol 1985; 22: 996-1006).
# (§2) Sterile disks of sandblasted titanium with a diameter of 25 mm and a thickness of 5 mm (Adler Ortho, Cormano, Italy) were used as the substrate for the formation of biofilms. The disks were coated with sub-inhibitory concentrations of vitamin E acetate (5 mg/cm^2) or vitamin E acetate with the addition of methylene blue (20 μg/cm^2). […] Uncoated disks were used as negative controls. Subsequently, an overnight bacteria culture was resuspended in Brain Heart Infusion Broth (BHI; Biomérieux) at a density of 1.5×10^8 CFU/ml for each strain, and 200 microliters of microbial suspension were inoculated in sterile polystyrene plates with 6 wells containing coated and uncoated disks and 4.8 ml of BHI. The plates were incubated at 37° C. in an aerobic atmosphere for 24 and 48 hours. The test was performed in triplicate for each strain.
# (§3) Upon completion of the biofilm incubation time, the disks were washed twice with a sterile saline solution to eliminate non-adherent bacteria. The disks were then immersed in 5 ml of a 0.1 w/v % dithiothreitol solution (DTT, Sigma-Aldrich, Milan, Italy) and mechanically stirred for 15 minutes at room temperature. Suitable dilutions of the fluids obtained were inoculated on Tryptic Soy Agar (TSA, Merck) and incubated at 37° C. in an aerobic atmosphere for 24 hours for the CFU count.
# [1] = test system: methicillin-resistant Staphylococcus aureus; assay: as above; type: cell-based; conditions: S. aureus, vitamin E acetate 5 mg/cm^2, methylene blue 20 μg/cm^2
# Excerpt: as §1, §2, §3
# [2] = test system: methicillin-resistant Staphylococcus epidermidis; assay: as above; type: cell-based; conditions: S. epidermidis, vitamin E acetate 5 mg/cm^2, methylene blue 20 μg/cm^2
# Excerpt: as §1, §2, §3
# S. aureus [3] = assay: MIC and MBC, broth microdilution (Example 3); type: cell-based, Staphylococcus aureus; conditions: S. aureus strains
# Excerpt: as §1, with “institute” for “Institute”, “strains” for “a strain”, “epidermidis,” for “epidermidis, a strain”, “and” for “and a strain”, “were screened” for “underwent testing”, “biofilms,” for “biofilms”
# (§4) The bacteriostatic and bactericidal activity of vitamin E acetate and vitamin E phosphate against the above-mentioned bacterial strains was assessed by measuring the minimum inhibitory concentration (MIC) and the minimum bactericidal concentration (MBC). MIC, defined as the lowest concentration capable of inhibiting bacterial growth, was determined using the broth microdilution method according to EUCAST guidelines (http://www.eucast.org/clinical_breakpoints/).
# (§5) In short, a suspension in Brain Heart Infusion Broth (BHI; Biomérieux, Marci l'Etoile, France) was prepared for each bacterial strain, with an optical density of 0.5 McFarland (1.5×10^8 CFU/ml). The P. acnes broth was supplemented with 5% defibrinated sheep blood (Liofilchem, Roseto degli Abruzzi, Italy). After a concentration of 10^5 UFC/ml was obtained using appropriate dilutions, each suspension was inoculated in a 96-well microtitre plate containing a two-fold serial dilution of vitamin E acetate (VitE-Ac) and vitamin E phosphate. The controls were performed by inoculating bacterial suspensions in BHI alone. […] After incubation at adequate conditions, MBC was read as the lowest concentration capable of killing 99.9% of the initial inoculum.
# S. epidermidis [4] = assay: MIC and MBC, broth microdilution (Example 3); type: cell-based, Staphylococcus epidermidis; conditions: S. epidermidis strains
# Excerpt: as §1, with “institute” for “Institute”, “strains” for “a strain”, “epidermidis,” for “epidermidis, a strain”, “and” for “and a strain”, “were screened” for “underwent testing”, “biofilms,” for “biofilms”
# as §4, §5
# S. aureus [5] = assay: Anti-adhesion activity on coated titanium disks, CFU count (Example 3); type: cell-based, Staphylococcus aureus; conditions: 5 mg/cm^2 coating, 30, 60 and 120 minutes
# Protocol: (§6) Sterile disks of sandblasted titanium with a diameter of 25 mm and a thickness of 5 mm (Adler Ortho, Cormano, Italy) were used as the substrate for the formation of biofilms. The disks were coated with sub-inhibitory concentrations of vitamin E acetate (5 mg/cm^2) or vitamin E phosphate (5 mg/cm^2). The concentrations were selected based on the MIC results. Uncoated disks were used as negative controls. The anti-adhesion activity of vitamin E was assessed against a representative strain for each species. An overnight bacteria culture was resuspended in Brain Heart Infusion Broth (BHI; Biomérieux) at a density of 1.0×10^7 CFU/ml for each strain, and 400 microliters of microbial suspension were inoculated on coated and uncoated disks. The test was performed in triplicate for each strain. After 30, 60 and 120 minutes of incubation, the disks were washed twice with a sterile saline solution to eliminate non-adherent bacteria. The disks were then immersed in 5 ml of a 0.1 w/v % dithiothreitol solution (DTT, Sigma-Aldrich, Milan, Italy) and mechanically stirred for 15 minutes at room temperature. Suitable dilutions of the fluids obtained were inoculated on Tryptic Soy Agar (TSA, Merck) and incubated at 37° C. in an aerobic atmosphere for 24 hours for the CFU count.
# S. epidermidis [6] = assay: as above; type: cell-based, Staphylococcus epidermidis; conditions: 5 mg/cm^2 coating, 30, 60 and 120 minutes
# Protocol: as §6
# P. aeruginosa = assay: as above; type: cell-based, Pseudomonas aeruginosa; conditions: 5 mg/cm^2 coating, 30, 60 and 120 minutes
# Protocol: as §6
# [7] = kills 99.9% of the initial inoculum
structure (smiles),measurement,setting,value
"CC(=O)Oc1c(C)c(C)c2c(c1C)CCC(C)(CCC[C@H](C)CCC[C@H](C)CCCC(C)C)O2 (stereo partly drawn) [Vitamin E acetate, α-tocopherol acetate]",biofilm reduction with respect to the controls (in words),Pseudomonas aeruginosa; 24 hours,not after 24 hours
same,biofilm reduction with respect to the controls (in words),Pseudomonas aeruginosa; 48 hours,effective after 48 hours
same,biofilm reduction with respect to the controls (in words),[1]; 24 hours,significant
same,biofilm reduction with respect to the controls (in words),[1]; 48 hours,significant
same,biofilm reduction with respect to the controls (in words),[2]; 24 hours,significant
same,biofilm reduction with respect to the controls (in words),[2]; 48 hours,significant
same,MIC range,S. aureus [3]; 24 hours,>200 mg/mL
same,MBC range,S. aureus [3]; [7],>200 mg/mL
same,MIC range,S. epidermidis [4]; 24 hours,>200 mg/mL
same,MBC range,S. epidermidis [4]; [7],>200 mg/mL
same,decrease in adhesion (in words),S. aureus [5],significant decrease
same,decrease in adhesion (in words),S. epidermidis [6],significant decrease
same,decrease in adhesion (in words),P. aeruginosa,No effect
